The text below walks through data of patent publication US20050239808A1, “Active substances for the treatment, diagnosis and prophylaxis of diseases in which abnormal protein structures occur” (priority 2002, published 2005).

The target in data set [1] is T1, Aβ(1-42) (Homo sapiens, UniProt P05067).
T1 construct: Aβ(1-42) was used as the model molecule in the aggregation experiments
The data set can be described thus: Aβ(1-42) aggregation assay by Fluorescence Correlation Spectroscopy (FCS). The class given is biochemical. As to conditions: 5.5-11 μM Aβ(1-42) + 22 nM oregon green-labelled Aβ(1-42), 10 nM of aminopyrazole (referring to the initial solution), 5-10% DMSO, 10 mM sodium phosphate buffer pH 7.2, room temperature, 12-72 hours.

The nature of data set [2]: Solubility of aminopyrazoles in DMSO and after dilution in sodium phosphate buffer.
Description: These aminopyrazoles were dissolved in 100% DMSO. […] In order to eliminate particles, these dissolved solutions of aminopyrazoles were resolved in 10 mM of sodium phosphate buffer pH 7.2 to a final DMSO concentration of 5%. They were then filtered with Microcon YM 10 tubes.
In data set [3] the target is T1, Aβ(1-42). The class given is biochemical. The note with it: FIG. 10; 32.8 μM and 16.4 μM Aβ(1-42), 20 mM AmpOx, 6 h at room temperature, 6% DMSO, 100,000 g centrifugation.
Description: Aβ(1-42) solutions were incubated under various conditions and their aggregation was analysed by a 100,000 g spin in an ultracentrifuge.
The Aβ(1-42) dissolved in 100% DMSO was diluted to a concentration of 11 μM in 10 mM of sodium phosphate buffer pH 7.2. All samples contained 22 nM of oregon green labelled Aβ(1-42) and were incubated for 48 hours at room temperature in 10% DMSO.
Aβ(1-42) was dissolved in 100% DMSO and diluted to a concentration of 32.8 μM and 16.4 μM in 10 mM of sodium phosphate buffer pH 7.2. The protein was incubated at room temperature for 6 h in 6% DMSO with and without 20 mM AmpOx.

T1 sequence (P05067 672-713 limits assumed): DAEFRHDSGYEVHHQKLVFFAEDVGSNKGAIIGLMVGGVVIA

Regarding `Cc1cc(NC(=O)C(=O)Nc2cc(C)[nH]n2)n[nH]1` [AmpOx, N,N′-Bis-(−5-methyl-1H-pyrazole-3-yl)-oxalic acid diamide], the “inhibition of Aβ(1-42) aggregation” value at Aβ(1-42) [1] is on record as “able to disturb or inhibit the aggregation of Aβ(1-42)”. In addition, the “solubility in 100% DMSO” value in data set [2] was “not completely soluble”. Moreover, the “distribution of Aβ(1-42) between supernatant (S) and pellet (P), compared with the Trimer result” value on Aβ(1-42) [3] was “almost identical results”.
On to `COC(=O)c1cc(NC(=O)c2cc(NC(=O)c3cc([N+](=O)[O-])[nH]n3)[nH]n2)[nH]n1` [Trimer], for which the “inhibition of Aβ(1-42) aggregation” value on Aβ(1-42) [1] is reported as “able to disturb or inhibit the aggregation of Aβ(1-42)”.
